Experimental data as given in patent US11787785B2 (NOVARTIS AG, priority 2021, dated 2023).

Target: T1, WIZ protein (HiBit-WIZ fusion protein) (Homo sapiens, UniProt O95785+Q96SW2)
T1 construct: expressed in transfected cells
Test: Quantification of WIZ protein levels in HiBit tag fusion protein assay (WIZ HiBit assay in 293T cells)
Format: cell-based
Details: for Dmax at 25 µM / remaining activity at 25 µM: HEK-293T; for Dmax at 25 µM: read-out: % degradation of WIZ (100 − Amax); for remaining activity at 25 µM: read-out: WIZ Amax; for DC50: WIZ HiBit assay in 293T cells, 10-point, 5-fold dose response, highest concentration 25 μM, about 18 hours, read-out: WIZ AC50
Experimental: The HiBit system from Promega was used to develop high-throughput and quantitative assays to measure changes in WIZ protein levels in response to compounds. The HiBit tag was derived from a split Nanoluciferase and has the following protein sequence: […] (SEQ ID NO: 1). The complementary fragment of Nanoluciferase (known as LgBit, from Promega), was added to the HiBit tag to form an active Nanoluciferase enzyme whose activity can be precisely measured. In this way, the levels of a fusion protein with the HiBit tag can be quantified in cell lysates.
Lentiviral vectors, based on the Invitrogen™ pLenti6.2/V5 DEST backbone were constructed that places the HiBit tag upstream of WIZ and expressed the fusion protein from an HSVTK promotor.
To ensure moderate and consistent expression of the HiBit-WIZ fusion protein across all cells in the population, stable cell lines were constructed from cells harboring a single copy of the construct. Lentivirus packaged with the constructs were made using the ViraPower™ kit from Invitrogen™. 293T cells from ATCC (Catalog number: CRL-3216), were infected with the virus at low multiplicity of infection and selected by 5 μg/mL blasticidin in culture media for 2 weeks.
The levels of HiBit-WIZ tagged fusion proteins in compound-treated cell lines were measured as follows:
On day 1, cells were diluted to 1.0×10^6 cells/ml in normal growth medium. 20 μL of cell suspension were plated in each well of a solid white 384-well plate. Plates were incubated overnight in a 37° C. and 5% CO2 humidified tissue culture incubator.
On day 2, serial dilutions of compounds were made in 384-well plates. Compound plates were set up with DMSO in columns 1, 2, 23, 24, and 10-point compound dilution series in column 3-12 and column 13-22. 10 mM stock solution of compound were placed into column 3 or 13 and a 1:5 serial dilution was carried out until there was a 10-point dilution series per compound. 50 nL of diluted compounds were transferred into the plated cells by Echo® (Labcyte) acoustic transfer. The highest concentration of compound was 25 μM. Plates were incubated overnight (about 18 hours) in a 37° C. and 5% CO2 humidified tissue culture incubator.
On day 3, plates were removed from the incubator and allowed to equilibrate at room temperature for 60 minutes. HiBit substrate (Nano-Glo® HiBit Lytic Detection System, Promega Catalogue number: N3050) was added as described by the manufacturers protocols. Plates were incubated at room temperature for 30 minutes and luminescence was read using an EnVision® reader (PerkinElmer®). Data was analyzed and visualized using the Spotfire® software package.
WIZ Degradation Activity of Compounds (Table 1)
WIZ Amax reflects the DMSO-normalized, curve-fitted percentage of WIZ-HiBit remaining at 25 uM. It was calculated by normalizing […] controls to 100%, parametric curve fitting of the dose response data (10-point, 5-fold), followed by calculation of response at 25 uM using the fitted equation (nd=not determined).

[1] = 100 − Amax, at 25 uM, 293T cells
[2] = DMSO-normalized, curve-fitted percentage of WIZ-HiBit remaining at 25 uM, 293T cells

T1 sequence (O95785 whole entry, the tested form may be a part): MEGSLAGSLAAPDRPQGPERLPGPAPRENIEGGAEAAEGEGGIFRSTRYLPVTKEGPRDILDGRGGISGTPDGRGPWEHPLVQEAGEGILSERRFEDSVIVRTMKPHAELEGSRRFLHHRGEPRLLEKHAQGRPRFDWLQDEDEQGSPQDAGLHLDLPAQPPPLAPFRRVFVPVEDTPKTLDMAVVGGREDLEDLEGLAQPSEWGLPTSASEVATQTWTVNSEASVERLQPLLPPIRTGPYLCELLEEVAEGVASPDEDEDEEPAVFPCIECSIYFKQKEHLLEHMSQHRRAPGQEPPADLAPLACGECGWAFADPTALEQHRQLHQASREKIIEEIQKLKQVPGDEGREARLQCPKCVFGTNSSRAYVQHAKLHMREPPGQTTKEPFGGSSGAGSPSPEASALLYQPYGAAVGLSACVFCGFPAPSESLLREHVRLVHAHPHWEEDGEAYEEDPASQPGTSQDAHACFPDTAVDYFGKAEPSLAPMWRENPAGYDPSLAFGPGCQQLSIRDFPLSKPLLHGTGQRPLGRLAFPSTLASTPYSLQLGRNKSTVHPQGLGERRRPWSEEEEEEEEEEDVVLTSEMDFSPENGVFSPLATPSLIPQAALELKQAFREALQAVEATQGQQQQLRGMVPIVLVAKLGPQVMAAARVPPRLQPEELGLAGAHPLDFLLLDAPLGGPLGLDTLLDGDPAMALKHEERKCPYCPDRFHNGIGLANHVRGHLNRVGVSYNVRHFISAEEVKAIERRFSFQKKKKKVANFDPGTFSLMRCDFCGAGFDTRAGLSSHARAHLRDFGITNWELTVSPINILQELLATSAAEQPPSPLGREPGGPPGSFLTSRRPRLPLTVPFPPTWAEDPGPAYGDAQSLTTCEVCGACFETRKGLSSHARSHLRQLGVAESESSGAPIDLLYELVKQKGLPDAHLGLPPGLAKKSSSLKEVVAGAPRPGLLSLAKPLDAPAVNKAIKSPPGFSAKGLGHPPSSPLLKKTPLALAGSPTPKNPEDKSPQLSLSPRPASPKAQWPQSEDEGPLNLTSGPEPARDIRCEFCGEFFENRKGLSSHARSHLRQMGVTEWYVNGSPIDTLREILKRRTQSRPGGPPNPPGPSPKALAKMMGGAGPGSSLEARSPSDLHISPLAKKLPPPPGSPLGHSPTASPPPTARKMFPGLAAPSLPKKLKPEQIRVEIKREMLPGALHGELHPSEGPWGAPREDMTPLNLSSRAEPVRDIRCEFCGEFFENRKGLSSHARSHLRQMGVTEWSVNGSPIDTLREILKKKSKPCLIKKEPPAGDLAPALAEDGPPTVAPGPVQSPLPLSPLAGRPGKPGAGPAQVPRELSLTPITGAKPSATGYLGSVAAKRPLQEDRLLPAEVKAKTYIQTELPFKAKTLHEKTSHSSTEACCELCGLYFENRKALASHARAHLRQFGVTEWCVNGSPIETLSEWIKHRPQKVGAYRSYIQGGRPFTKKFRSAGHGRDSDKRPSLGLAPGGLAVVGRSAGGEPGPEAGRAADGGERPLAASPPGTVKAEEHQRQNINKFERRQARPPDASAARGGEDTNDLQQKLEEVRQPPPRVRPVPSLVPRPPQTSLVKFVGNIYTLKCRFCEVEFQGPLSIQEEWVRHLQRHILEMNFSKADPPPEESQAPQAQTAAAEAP
T1 sequence (Q96SW2 whole entry, the tested form may be a part): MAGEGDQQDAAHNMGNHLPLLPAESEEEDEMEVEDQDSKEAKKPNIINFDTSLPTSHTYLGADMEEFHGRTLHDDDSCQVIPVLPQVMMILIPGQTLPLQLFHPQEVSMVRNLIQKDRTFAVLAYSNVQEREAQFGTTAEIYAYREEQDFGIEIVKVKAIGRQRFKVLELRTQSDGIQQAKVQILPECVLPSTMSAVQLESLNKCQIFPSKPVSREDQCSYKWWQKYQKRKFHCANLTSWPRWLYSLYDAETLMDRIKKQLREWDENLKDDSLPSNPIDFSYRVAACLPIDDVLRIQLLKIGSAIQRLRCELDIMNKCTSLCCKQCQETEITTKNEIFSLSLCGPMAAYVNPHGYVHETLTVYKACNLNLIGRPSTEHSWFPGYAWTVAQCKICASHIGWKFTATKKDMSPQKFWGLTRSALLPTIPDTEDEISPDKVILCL
T1 sequence (Q16531 whole entry partner, the tested form may be a part): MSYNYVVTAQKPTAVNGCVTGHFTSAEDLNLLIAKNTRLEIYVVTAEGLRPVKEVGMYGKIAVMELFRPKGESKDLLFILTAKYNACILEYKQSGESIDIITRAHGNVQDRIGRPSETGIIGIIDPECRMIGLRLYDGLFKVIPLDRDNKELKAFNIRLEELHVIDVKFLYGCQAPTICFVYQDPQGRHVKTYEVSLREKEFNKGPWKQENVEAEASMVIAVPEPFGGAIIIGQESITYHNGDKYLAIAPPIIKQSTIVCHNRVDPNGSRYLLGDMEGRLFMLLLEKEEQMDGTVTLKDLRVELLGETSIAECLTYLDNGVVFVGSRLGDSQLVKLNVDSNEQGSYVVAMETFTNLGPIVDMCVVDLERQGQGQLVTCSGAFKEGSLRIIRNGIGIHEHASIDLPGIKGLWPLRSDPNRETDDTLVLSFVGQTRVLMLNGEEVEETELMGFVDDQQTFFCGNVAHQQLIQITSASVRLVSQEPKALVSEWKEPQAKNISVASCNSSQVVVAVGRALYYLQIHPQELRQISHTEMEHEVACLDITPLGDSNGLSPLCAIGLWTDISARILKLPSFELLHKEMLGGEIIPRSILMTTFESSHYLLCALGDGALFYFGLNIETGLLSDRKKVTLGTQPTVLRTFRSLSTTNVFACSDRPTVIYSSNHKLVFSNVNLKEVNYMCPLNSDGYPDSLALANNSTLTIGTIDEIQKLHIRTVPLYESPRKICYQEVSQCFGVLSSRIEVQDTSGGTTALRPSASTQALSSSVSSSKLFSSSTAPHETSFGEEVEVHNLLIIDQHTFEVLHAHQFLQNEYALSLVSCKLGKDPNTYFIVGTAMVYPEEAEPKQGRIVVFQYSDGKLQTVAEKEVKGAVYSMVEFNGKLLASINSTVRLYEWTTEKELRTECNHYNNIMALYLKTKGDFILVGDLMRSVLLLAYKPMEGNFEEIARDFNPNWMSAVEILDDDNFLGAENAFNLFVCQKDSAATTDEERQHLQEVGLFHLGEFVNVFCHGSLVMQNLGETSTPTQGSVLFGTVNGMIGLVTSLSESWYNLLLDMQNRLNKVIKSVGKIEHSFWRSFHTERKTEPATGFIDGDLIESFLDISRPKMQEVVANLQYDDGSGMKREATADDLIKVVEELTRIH

| Compound | Dmax at 25 µM [1] [%] | remaining activity at 25 µM [2] [%] | DC50 [nM] | % degradation of WIZ (100 − Amax) [1] [%] | WIZ Amax [2] [%] |
| --- | --- | --- | --- | --- | --- |
| O=C1CCN(c2cnn3ccc(CC4CCN(CC5CCCO5)CC4)cc23)C(=O)N1 (stereo not drawn) [Example 15, 1-(5-((1-((tetrahydrofuran-2-yl)methyl)piperidin-4-yl)methyl)pyrazolo[1,5-a]pyridin-3-yl)dihydropyrimidine-2,4(1H,3H)-dione] | 71 | 29 | 523 | – | – |
| O=C1CCN(c2cnn3ccc(CC4CCN(CCO)CC4)cc23)C(=O)N1 [Example 35, 1-(5-((1-(2-hydroxyethyl)piperidin-4-yl)methyl)pyrazolo[1,5-a]pyridin-3-yl)dihydropyrimidine-2,4(1H,3H)-dione] | 73 | 27 | 3140 | – | – |
| Cc1ccccc1CN1CCC(Cc2ccn3ncc(N4CCC(=O)NC4=O)c3c2)CC1 [Example 41, 1-(5-((1-(2-methylbenzyl)piperidin-4-yl)methyl)pyrazolo[1,5-a]pyridin-3-yl)dihydropyrimidine-2,4(1H,3H)-dione] | 70 | 30 | 27 | – | – |
| O=C1CCN(c2cnn3ccc(CN4CCN(CC5CC(F)(F)C5)CC4)cc23)C(=O)N1 [Example 174] | 81 | 19 | 95 | – | – |
| CO[C@H]1C[C@H](CN2CC[C@@H](Cc3ccn4ncc(N5CCC(=O)NC5=O)c4c3)C[C@@H]2C)C1 [Example 302, 1-(5-(((2S,4R)-1-(((1r,3S)-3-methoxycyclobutyl)methyl)-2-methylpiperidin-4-yl)methyl)pyrazolo[1,5-a]pyridin-3-yl)dihydropyrimidine-2,4(1H,3H)-dione] | 84 | 16 | 42 | – | – |
| O=C1CCN(c2cnn3ccc(CN4CCN(CC5CCOC5)CC4)cc23)C(=O)N1 (stereo not drawn) [Example 177] | 77 | 23 | 106 | – | – |
| CCO[C@H]1CC[C@H](CN2CCC(Cc3ccn4ncc(N5CCC(=O)NC5=O)c4c3)CC2)CC1 [Example 266, 1-(5-((1-(((1r,4r)-4-ethoxycyclohexyl)methyl)piperidin-4-yl)methyl)pyrazolo[1,5-a]pyridin-3-yl)dihydropyrimidine-2,4(1H,3H)-dione] | 81 | 19 | 44 | – | – |
| O=C1CCN(c2cnn3ccc(CC4CCN(CC5CCCOC5)CC4)cc23)C(=O)N1 (stereo not drawn) [Example 7, 1-(5-((1-((tetrahydro-2H-pyran-3-yl)methyl)piperidin-4-yl)methyl)pyrazolo[1,5-a]pyridin-3-yl)dihydropyrimidine-2,4(1H,3H)-dione] | 86 | 14 | 23 | – | – |
| C[C@H]1CC(F)(Cc2ccn3ncc(N4CCC(=O)NC4=O)c3c2)CCN1CC1CCC(F)(F)CC1 (single isomer, unassigned) [Example 309] | – | – | 56 | 62 | 38 |
| CC(C)CN1CCC(Cc2ccn3ncc(N4CCC(=O)NC4=O)c3c2)C1 (stereo not drawn) [Example 132] | 41 | 59 | 720 | – | – |
| CC(C)C(C)N1CCC(Cc2ccn3ncc(N4CCC(=O)NC4=O)c3c2)CC1 (stereo not drawn) [Example 70, 1-(5-((1-(3-methylbutan-2-yl)piperidin-4-yl)methyl)pyrazolo[1,5-a]pyridin-3-yl)dihydropyrimidine-2,4(1H,3H)-dione] | 83 | 17 | 21 | – | – |
| O=C1CCN(c2cnn3ccc(CC4CCN(CC5CCNCC5)CC4)cc23)C(=O)N1 [Example 63] | 36 | 64 | > 25000 | – | – |
| C[C@H]1CN(Cc2ccn3ncc(N4CCC(=O)NC4=O)c3c2)CCN1CC1CCO1 (stereo partly drawn) [Example 324, 1-(5-(((3S)-3-methyl-4-(oxetan-2-ylmethyl)piperazin-1-yl)methyl)pyrazolo[1,5-a]pyridin-3-yl)dihydropyrimidine-2,4(1H,3H)-dione] | 72 | 28 | 108 | – | – |
| C[C@H]1C[C@H](Cc2ccn3ncc(N4CCC(=O)NC4=O)c3c2)CCN1S(=O)(=O)NC1CCCC1 [Example 293] | 76 | 24 | 65 | – | – |
| O=C1CCN(c2cnn3ccc(CC4CCN(CC5CCC5)CC4)cc23)C(=O)N1 [Example 18, 1-(5-((1-(cyclobutylmethyl)piperidin-4-yl)methyl)pyrazolo[1,5-a]pyridin-3-yl)dihydropyrimidine-2,4(1H,3H)-dione] | 82 | 18 | 34 | – | – |
| C[C@@H]1CN(Cc2ccn3ncc(N4CCC(=O)NC4=O)c3c2)C[C@H](C)N1CC1CCOCC1 [Example 256, 1-(5-(((3S,5R)-3,5-dimethyl-4-((tetrahydro-2H-pyran-4-yl)methyl)piperazin-1-yl)methyl)pyrazolo[1,5-a]pyridin-3-yl)dihydropyrimidine-2,4(1H,3H)-dione] | 78 | 22 | 186 | – | – |
| CC(c1cccc(F)c1)N1CCC(Cc2ccn3ncc(N4CCC(=O)NC4=O)c3c2)CC1 (stereo not drawn) [Example 48, 1-(5-((1-(1-(3-fluorophenyl)ethyl)piperidin-4-yl)methyl)pyrazolo[1,5-a]pyridin-3-yl)dihydropyrimidine-2,4(1H,3H)-dione] | 68 | 32 | 61 | – | – |
| O=C1CCN(c2cnn3ccc(CC4CCN(C(=O)C5(C(F)(F)F)CC5)CC4)cc23)C(=O)N1 [Example 100] | 42 | 58 | 755 | – | – |

Compounds with a lower DC50, results first:

| Dmax at 25 µM [1] [%] | remaining activity at 25 µM [2] [%] | DC50 [nM] | % degradation of WIZ (100 − Amax) [1] [%] | WIZ Amax [2] [%] | Compound |
| --- | --- | --- | --- | --- | --- |
| 83 | 17 | 11 | – | – | C[C@H]1C[C@H](Cc2ccn3ncc(N4CCC(=O)NC4=O)c3c2)CCN1S(=O)(=O)N(C)C [Example 292] |
| 90 | 10 | 3 | – | – | C[C@H]1C[C@@H](Cc2ccn3ncc(N4CCC(=O)NC4=O)c3c2)CCN1CC1CCC(F)(F)CC1 [Example 74] |
| 89 | 11 | 3 | – | – | C[C@H]1C[C@@H](Cc2ccn3ncc(N4CCC(=O)NC4=O)c3c2)CCN1CC1CCOCC1 [Example 73] |
| 81 | 19 | 18 | – | – | C[C@H]1C[C@H](Cc2ccn3ncc(N4CCC(=O)NC4=O)c3c2)CCN1C(=O)N(C)C [Example 294] |
| 82 | 18 | 3 | – | – | CO[C@H]1C[C@@H](CN2CCC(Cc3ccn4ncc(N5CCC(=O)NC5=O)c4c3)CC2)C1 [Example 300, 1-(5-((1-(((1s,3s)-3-methoxycyclobutyl)methyl)piperidin-4-yl)methyl)pyrazolo[1,5-a]pyridin-3-yl)dihydropyrimidine-2,4(1H,3H)-dione] |
| 88 | 12 | 20 | – | – | C[C@H]1CN(Cc2ccn3ncc(N4CCC(=O)NC4=O)c3c2)CCN1C[C@H]1CC[C@H](O)CC1 [Example 201, 1-(5-(((S)-4-(((1r,4S)-4-hydroxycyclohexyl)methyl)-3-methylpiperazin-1-yl)methyl)pyrazolo[1,5-a]pyridin-3-yl)dihydropyrimidine-2,4(1H,3H)-dione] |
| 89 | 11 | 3 | – | – | O=C1CCN(c2cnn3ccc(CN4CCN(CC56CC7CC(CC(C7)C5)C6)CC4)cc23)C(=O)N1 [Example 194, 1-(5-((4-(((3r,5r,7r)-adamantan-1-yl)methyl)piperazin-1-yl)methyl)pyrazolo[1,5-a]pyridin-3-yl)dihydropyrimidine-2,4(1H,3H)-dione] |
| 88 | 12 | 6 | – | – | C[C@H]1CN(Cc2ccn3ncc(N4CCC(=O)NC4=O)c3c2)CCN1C1CC2(CCC2)C1 [Example 335] |
